# Assay results reported in US20230147468A1, “RECOMBINANT PEPTIDE TO TREAT FIRE BLIGHT” (INNATE IMMUNITY LLC, priority 2020, published 2023).
# No end group written: not given here.
# Legend:
# [1] = test system: Erwinia amylovora (ATCC 49946); experiment: Minimum inhibitory concentration, serial dilutions of peptide; format: cell-based; settings: for activity against Erwinia amylovora (MIC assay): Erwinia amylovora ATCC 49946, serial dilutions
# Xanthomonas perforans = experiment: Minimum inhibitory concentration assay; format: cell-based; settings: causes spot in tomato
# [2] = test system: Xanthomonas euvesicatoria; experiment: Minimum inhibitory concentration assay; format: cell-based; settings: causes spot in tomato
# Pseudomonas syringae = experiment: Minimum inhibitory concentration assay; format: cell-based; settings: causes speck in tomato
# Ralstonia solanaeceum = format: cell-based; settings: causes bacterial wilt in tomato
# apple reference gene = experiment: Detached leaf assay, Ct of apple reference gene; format: in vivo; settings: detached apple leaves treated with 28P-2
# From the text: Water was used as a control.
sequence,measurement,setting,value
KLIKLIKKILKKGPGRKLIKLIKKILKK [28P-4],activity against Erwinia amylovora (MIC assay),[1],active
KVLSRVHAALKSIFDLGPGRKVLSRVHAALKSIFDL [36P],"toxicity to Erwinia amylovora by MIC, compared with 28P-2","[1]; 36P relative to 28P-2, FIG. 5",significantly more toxic
same,activity against Erwinia amylovora (MIC assay),[1],significant activity
same,activity against Xanthomonas perforans,Xanthomonas perforans,significant activity
same,activity against Xanthomonas euvesicatoria,[2],significant activity
same,activity against Pseudomonas syringae,Pseudomonas syringae,significant activity
same,activity against Ralstonia solanaeceum,Ralstonia solanaeceum,significant activity
KRIVQRIKDFLRGPGRKRIVQRIKDFLR [28P-2],level (Ct) of apple reference gene upon treatment,apple reference gene,remained unchanged
KEIVRRIEKFLRGPGRKRIVERIEKFLR [28P-8],activity against Erwinia amylovora (MIC assay),[1],active
